# Reference: patent publication US8889398B2, “Composition for inactivating an enveloped virus” (Viroblock SA, priority 2006, dated 2014)
# Entries after “also recorded” stand apart in the source; their conditions may differ.
# Tests used:
# [1] = tested on: rSeV-Luc (recombinant Sendai virus); test: Inactivation assay with or without cyclodextrin, rSeV-Luc, luciferase activity in MK2 cells; type: cell-based
# Protocol: MK2 (monkey) cells were grown at 37° C. in DMEM containing 5% of bovine serum albumin (BSA) until they reached 70% of confluence.
# A recombinant Sendai virus was used, rSeV-Luc, which encodes the Photinus pyralis luciferase gene.
# The nPLV preparations were diluted in PBS to the indicated concentrations. The diluted nPLVs were then mixed with the viruses, either alone (no cyclodextrin) or in combination with 0.5 mM (final concentration) of cyclodextrin, in a volume of 100 μl. The virus-nPLV mixtures were incubated at room temperature for 20 minutes with shaking. About 10^5 viral particles were used.
# Following incubation, the mixtures were diluted to […] in DMEM without BSA and directly added onto cells. Infections were performed at 33° C. for one hour, and then infectious mixes were removed. Cells were washed once with DMEM without BSA, 10 ml of DMEM with 1% BSA were added and incubation was further performed at 37° C. for 36 hours. Experiment was done in duplicates.
# MK2 cells were lysed and luciferase activity was determined using the Promega's Luciferase Assay System. Measurements were done with TD-20/20 luminometer (Turner Designs).
# cellular integrity = details: 50-100 mM, range of concentrations used in most in vitro experiments; cited from earlier work
compound,measurement,setting,value
OC[C@H]1O[C@@H]2O[C@H]3[C@H](O)[C@@H](O)[C@@H](O[C@H]4[C@H](O)[C@@H](O)[C@@H](O[C@H]5[C@H](O)[C@@H](O)[C@@H](O[C@H]6[C@H](O)[C@@H](O)[C@@H](O[C@H]7[C@H](O)[C@@H](O)[C@@H](O[C@H]8[C@H](O)[C@@H](O)[C@@H](O[C@H]1[C@H](O)[C@H]2O)O[C@@H]8CO)O[C@@H]7CO)O[C@@H]6CO)O[C@@H]5CO)O[C@@H]4CO)O[C@@H]3CO [β-cyclodextrin],effect of β-cyclodextrin on the viral inactivation by nPLVs,"[1]; 0.5 mM β-cyclodextrin with nPLVs composed of PCE with 0.1% mol of oleic acid (OA), nPLVs 0.02%, 0.05% and 0.1%, FIG. 2A",greatly enhances the viral inactivation; also recorded: strong synergistic effect
same,concentration at which a direct effect of β-cyclodextrin alone on the viral particles is observed,"[1]; in absence of nPLVs, FIG. 2B",higher than 5 mM
same,effect on cellular integrity,cellular integrity,detrimental for cellular integrity and can induce cell death
